# Columns and labels:
# [1] = cited from earlier work
# HIV-1 = experiment: In vitro protein binding-adjusted 95% effective concentration (paEC95) and inhibitory quotient; format: cell-based
# [2] = in vivo, sc; cited from earlier work
# HIV = settings: twice-yearly SC 927 mg (two 1.5 mL injections of 309 mg/mL), oral loading 600 mg days 1 and 2; cited from earlier work
smiles,measurement,setting,value
CC(C)(C#Cc1ccc(-c2ccc(Cl)c3c(NS(C)(=O)=O)nn(CC(F)(F)F)c23)c([C@H](Cc2cc(F)cc(F)c2)NC(=O)Cn2nc(C(F)(F)F)c3c2C(F)(F)[C@@H]2C[C@H]32)n1)S(C)(=O)=O [lenacapavir],systemic lenacapavir exposures relative to those achieved with the intramuscular formulations,"[1]; observed previously, well tolerated",approximately 3 fold
same,mean Cmax,[1]; supratherapeutic total dose of 9600 mg of oral lenacapavir,1070.4 ng/mL
same,in vitro paEC95 (protein binding-adjusted 95% effective concentration),HIV-1,3.87 ng/mL
same,inhibitory quotient-4 (IQ4; 4-fold in-vitro protein binding-adjusted 95% effective concentration),HIV-1; plasma concentration threshold,15.5 ng/mL
same,highest observed mean concentration,[2],72.1 ng/mL
same,efficacy in cisgender men and gender-diverse people,HIV,99.9%
same,efficacy in cisgender women,HIV,100%

# Source: patent publication US20260014130A1, “FORMULATIONS OF CAPSID INHIBITOR” (Gilead Sciences, Inc., priority 2024, published 2026)
